From patent US8703815B2, “Small molecules that covalently modify transthyretin” (The Scripps Research Institute, priority 2009, dated 2014)
Where two headings read alike, the source gives them in different places.

Assays:
[1] = Photoisomerization upon irradiation (312 nm, 10 seconds); format: physicochemical
Protocol: Although TTR can bind to small molecules composed of two aromatic rings when the tethered rings are up to 40° out of plane {based on TTR-stilbene crystal structures [Klabunde et al., Nat. Struct. Biol. 2000, 7, 312-321; Connelly et al., Curr. Opin. Struc. Biol. 2010, 20, 54-62; Johnson et al., J. Med. Chem. 2008, 51, 6348-6358; Choi et al., J. Am. Chem. Soc. 2010, 132, 1359-1370; Choi et al., Nat. Chem. Biol. 2010, 6, 133-139; Baures et al., Bioorg. Med. Chem. 1998, 6, 1389-1401; and Baures et al., Bioorg. Med. Chem. 1999, 7, 1339-1347]}, it would be energetically unfavorable to bind the excited singlet state in a conformation where the two aryl rings are oriented perpendicular to one another. Thus, we propose that the increase in fluorescence quantum yield of B2 from 0.09 in buffer to 0.55 in complex with TTR results from the resculpted excited singlet state energy surface of the stilbene in complex with TTR, such that the trans-conformer is the only state of relatively low potential energy [Gorner, H.; Kuhn, H. J. Adv, Photochem. 1995, 19, 1-117; Malkin et al., J. Phys. Chem. 1964, 68, 1153-1163; Saltiel, J. J. Am. Chem. Soc. 1967, 89, 1036-1037; Saltiel et al., J. Am. Chem. Soc. 1972, 94, 6445-6457; Saltiel et al., J. Am. Chem. Soc. 1979, 101, 2982-2996; and Saltiel et al., J. Am. Chem. Soc. 1968, 90, 4759-4760] inhibiting photoisomerization-based relaxation of B2. That B2 binding to TTR inhibits B2 photoisomerization is consistent with the observation that the irradiation of B2 in buffer (Life Technologies, TFX-35M, 312 nm) for 10 seconds affords 60% of the cis isomer, along with other minor photoreaction products, whereas irradiation of B2 bound to TTR yields only 20% cis isomer.
It appears that the increase in fluorescence quantum yield of A2 from 0.00 in buffer to 0.27 in the TTR-(stilbene)n≦2 conjugate is only partly explained by the mechanism proposed for B2 [Gorner, H.; Kuhn, H. J. Adv, Photochem. 1995, 19, 1-117; Malkin et al., J. Phys. Chem. 1964, 68, 1153-1163; Saltiel, J. J. Am. Chem. Soc. 1967, 89, 1036-1037; Saltiel et al., J. Am. Chem. Soc. […]

K15A-TTR = target: T1, K15A-TTR (Homo sapiens, UniProt P02766, K35A); assay: RP-HPLC analysis of reaction with K15A-TTR homotetramer; format: binding
T1 construct: composed of 127-residue β-sheet-rich subunits; made in house
Description: A strictly analogous study performed with the K15A homotetrameric TTR mutant confirmed that K15 was essential for the observed chemoselective reaction between TTR and Compounds […] (FIG. 1A, bottom trace). […] However, it is important to note that Compounds 1-3 were only slightly less chemoselective (<5% reaction with K15A).
The ability of compounds A1 and A2, auxochromic analogs of previously discussed stilbenes [Klabunde et al., Nat. Struct. Biol. 2000, 7, 312-321; Connelly et al., Curr. Opin. Struc. Biol. 2010, 20, 54-62; Johnson et al., J. Med. Chem. 2008, 51, 6348-6358; Choi et al., J. Am. Chem. Soc. 2010, 132, 1359-1370; Choi et al., Nat. Chem. Biol. 2010, 6, 133-139; and Baures et al., Bioorg. Med. Chem. 1998, 6, 1389-1401] to form a chemoselective amide bond with the K15 residue of TTR was assessed by reverse-phase-HPLC and liquid chromatography-mass spectrometry analysis. […] The binding of the covalent modifier A2 to K15A-TTR (in the absence of amide bond conjugation) was confirmed by incubating A2 with K15A-TTR in phosphate buffer (pH 7) followed by K15A immunoisolation using a Sepharose® resin-conjugated anti-TTR polyclonal antibody [Purkey et al., Proc. Natl. Acad. Sci. U.S.A. 2001, 98, 5566-5571].
Recombinant WT-TTR was expressed as described previously [Lashuel et al., Biochemistry 38:13560-13573 (1999)]. For analysis of test compounds with TTR, each compound (1.5 μL in DMSO, 1.44 mM) was added to 300 μL of WT-TTR or K15A mutant TTR (3.6 μM, 10 mM sodium phosphate, 100 mM KCl, 1 mM EDTA, pH 7.0). The samples were vortexed, and incubated for 18 hours at 25° C. Reverse phase high performance liquid chromatography (RP-HPLC) was performed on a Water 600 E multi-solvent delivery system, using a Waters 486 tunable absorbance detector, a 717 autosampler, and a ThermoHypersil Keystone Betabasic-18 column μ150 Å pore size, 3 μm particle size, and mobile phase A; 0.1% TFA in 95% H2O+5% CH3CN and mobile phase B, 0.1% TFA in 95% CH3CN+5% H2O). Linear gradients were run from 100:0 to 0:100 A:B for 27 minutes.

WT-TTR = target: T2, WT-TTR (Homo sapiens, UniProt P02766); assay: Acid-mediated WT-TTR fibril formation assay (turbidity at 400 nm); format: biochemical; conditions: for IC50: % fibril formation after 72 hours, read-out: IC50 (apparent), inhibition of WT-TTR amyloidogenesis
T2 construct: composed of 127-residue β-sheet-rich subunits; made in house; host or cells: E. coli
Protocol: The mixtures were vortexed and incubated (maintained) for 18 hours at 25° C.

photoisomerization upon irradiation in buffer (in words) [1] | IC50 (WT-TTR; WT-TTR 3.6 μM) [nM] | IC50 (WT-TTR; WT-TTR […]) [nM] | % Fibril Formation 7.2 μM (WT-TTR) (WT-TTR; WT-TTR […], compound 7.2 μM, pH 4.4, 72 hours, 37° C.) [%] | % Fibril Formation […] (WT-TTR) (WT-TTR; WT-TTR […], compound […], pH 4.4, 72 hours, 37° C.) [%] | SMILES | reaction with K15A-TTR (in words) (K15A-TTR)
does not readily form the cis isomer |  |  |  |  | Cc1cc(/C=C/c2cc(C(=O)Sc3ccc(F)cc3)cc(N(C)C)c2)cc(C)c1O [Compound A2, (E)-S-4-fluorophenyl 3-(dimethylamino)-5-(4-hydroxy-3,5-dimethylstyryl)-benzothioate] | no conjugation
 | 1960 to 2260 | 2000 | 2 | 16 | Cc1cc(/C=C/c2cccc(C(=O)Sc3ccccc3)c2)cc(C)c1O [Compound 2, (E)-S-phenyl 3-(4-hydroxy-3,5-dimethylstyryl)benzothioate] | 
 |  |  |  |  | Cc1cc(/C=C/c2cccc(C(=O)Oc3ccc(F)cc3)c2)cc(C)c1O [Compound 4, (E)-4-fluorophenyl 3-(4-hydroxy-3,5-dimethylstyryl)benzoate] | no reaction could be detected
